# Data taken from PMC4147592 (2014).
# How the values were obtained:
# [1] = tested on: A08 minimer (DNA, aptamer) GGCAGTGTGGGCGAATCTATGCGTACCGTTCGATATCGTG; test: SYBR Green I displacement fluorescence; conditions: 137 mM NaCl, 2.7 mM KCl, 10 mM Na2HPO4, 2 mM KH2PO4, pH 7.4, tracer SYBR Green I
# [2] = tested on: A08 (DNA, aptamer) AGCCTCGTCTGTTCTCCCGGCAGTGTGGGCGAATCTATGCGTACCGTTCGATATCGTGGGGAAGACAAGCAGACGT; test: SYBR Green I displacement fluorescence; conditions: 137 mM NaCl, 2.7 mM KCl, 10 mM Na2HPO4, 2 mM KH2PO4, pH 7.4, tracer SYBR Green I
# [3] = tested on: B08 (DNA, aptamer) AGCCTCGTCTGTTCTCCCGGCGCATGATCATTCGGTGGGTAAGGTGGTGGTAACGTTGGGGAAGACAAGCAGACGT; test: SYBR Green I displacement fluorescence; conditions: 137 mM NaCl, 2.7 mM KCl, 10 mM Na2HPO4, 2 mM KH2PO4, pH 7.4, tracer SYBR Green I
# [4] = tested on: A08 minimer (DNA, aptamer) GGCAGTGTGGGCGAATCTATGCGTACCGTTCGATATCGTG; test: fluorescence enhancement at 520 nm; conditions: 137 mM NaCl, 2.7 mM KCl; 10 mM Na2HPO4, 2 mM KH2PO4, pH 7.4; excitation 497 nm
# [5] = tested on: Non-specific control (DNA, single strand) AGCACGTTGGTAGGTCGGTTTGGGTTTCGTGC; test: fluorescence enhancement at 520 nm; conditions: 137 mM NaCl, 2.7 mM KCl; 10 mM Na2HPO4, 2 mM KH2PO4, pH 7.4; excitation 497 nm
# [6] = tested on: B08 (DNA, aptamer) AGCCTCGTCTGTTCTCCCGGCGCATGATCATTCGGTGGGTAAGGTGGTGGTAACGTTGGGGAAGACAAGCAGACGT; test: fluorescence enhancement at 520 nm; conditions: 137 mM NaCl, 2.7 mM KCl; 10 mM Na2HPO4, 2 mM KH2PO4, pH 7.4; excitation 497 nm
# [7] = tested on: A08 (DNA, aptamer) AGCCTCGTCTGTTCTCCCGGCAGTGTGGGCGAATCTATGCGTACCGTTCGATATCGTGGGGAAGACAAGCAGACGT; test: fluorescence enhancement at 520 nm; conditions: 137 mM NaCl, 2.7 mM KCl; 10 mM Na2HPO4, 2 mM KH2PO4, pH 7.4; excitation 497 nm
# [8] = tested on: Non-specific control (DNA, single strand) AGCACGTTGGTAGGTCGGTTTGGGTTTCGTGC; test: SYBR Green I displacement fluorescence; conditions: 137 mM NaCl, 2.7 mM KCl; 10 mM Na2HPO4, 2 mM KH2PO4, pH 7.4; tracer SYBR Green I; highest OTA about 0.18 µM
# [9] = tested on: 1.12.2 (DNA, aptamer) GATCGGGTGTGGGTGGCGTAAAGGGAGCATCGGACA; test: magnetic beads isocratic elution, fluorescence; conditions: 137 mM NaCl, 2.7 mM KCl; immobilised compound (amine Dynabeads, EDC); 10 mM Na2HPO4, 2 mM KH2PO4, pH 7.4; apparent
# [10] = tested on: B08 (DNA, aptamer) AGCCTCGTCTGTTCTCCCGGCGCATGATCATTCGGTGGGTAAGGTGGTGGTAACGTTGGGGAAGACAAGCAGACGT; test: magnetic beads isocratic elution, fluorescence; conditions: 137 mM NaCl, 2.7 mM KCl; immobilised compound (amine Dynabeads, EDC); 10 mM Na2HPO4, 2 mM KH2PO4, pH 7.4; apparent
# [11] = tested on: A08 (DNA, aptamer) AGCCTCGTCTGTTCTCCCGGCAGTGTGGGCGAATCTATGCGTACCGTTCGATATCGTGGGGAAGACAAGCAGACGT; test: magnetic beads isocratic elution, fluorescence; conditions: 137 mM NaCl, 2.7 mM KCl; immobilised compound (amine Dynabeads, EDC); 10 mM Na2HPO4, 2 mM KH2PO4, pH 7.4; apparent
# [12] = compared at 30 and 100 nM, highest about 0.18 µM
smiles,measurement,setting,value
CC(=O)CC(c1ccccc1)c1c(O)c2ccccc2oc1=O (stereo not shown),binding,[1]; [12],no
same,binding,[2]; [12],no
same,binding,[3]; OTA signal 2–3 fold larger,weak
CCCN(CCCN(C)C)c1cc(C=C2Sc3ccccc3N2C)c2ccccc2[n+]1-c1ccccc1,binding,[4],yes
same,binding,[5],yes
same,binding,[6],yes
same,binding,[7],yes
C[C@@H]1Cc2c(Cl)cc(C(=O)N[C@@H](Cc3ccccc3)C(=O)O)c(O)c2C(=O)O1,binding,[8],no
same,KD,[9],370 ± 250 nM
same,binding,[1]; linear signal to 100 nM OTA,yes
same,binding,[3],yes
same,KD,[10],110 ± 50 nM
same,KD,[11],290 ± 150 nM
C[C@@H]1Cc2ccc(C(=O)N[C@@H](Cc3ccccc3)C(=O)O)c(O)c2C(=O)O1,binding,[1]; OTA signal 6–10 fold larger,weak
same,binding,[2]; OTA signal 6–10 fold larger,weak
same,binding,[3]; OTA signal 2–3 fold larger,weak
